Experimental data from ChEMBL document CHEMBL1212917, “Substituted E-3-(3-indolylmethylene)-1,3-dihydroindol-2-ones with antitumor activity. In depth study of the effect on growth of breast cancer cells” (2010).
Structures can show the parent of a compound that is named as a salt.

Experiments:
Format in all cases: functional
[1] = Growth inhibition of human CNS cancer cells after 48 hrs; details: Cancer cell lines; for CC50: read-out: LC50 (the source's name)
[2] = Growth inhibition of human breast cancer cells after 48 hrs; details: Cancer cell lines; for CC50: read-out: LC50 (the source's name)
NSCLC = assay: Growth inhibition of human NSCLC cells after 48 hrs
[3] = Growth inhibition of human leukemia cells after 48 hrs; details: Leukemia cell; for CC50: read-out: LC50 (the source's name)
[4] = Growth inhibition of human colon cancer cells after 48 hrs; details: Cancer cell lines; for CC50: read-out: LC50 (the source's name)
[5] = Growth inhibition of human melanoma cells after 48 hrs; details: Melanoma cell; for CC50: read-out: LC50 (the source's name)
[6] = Growth inhibition of human Ovarian cancer cells after 48 hrs; details: Cancer cell lines; for CC50: read-out: LC50 (the source's name)
[7] = Growth inhibition of human renal cancer cells after 48 hrs; details: Cancer cell lines; for CC50: read-out: LC50 (the source's name)
[8] = Growth inhibition of human prostate cancer cells after 48 hrs; details: Cancer cell lines; for CC50: read-out: LC50 (the source's name)

Structure (SMILES) | CC50 [1] [µM] | GI50 [2] [µM] | CC50 [2] [µM] | LC50 (NSCLC) [µM] | GI50 [1] [µM] | GI50 [3] [µM] | CC50 [3] [µM] | GI50 (NSCLC) [µM] | GI50 [4] [µM] | CC50 [4] [µM] | GI50 [5] [µM] | CC50 [5] [µM] | GI50 [6] [µM] | CC50 [6] [µM] | GI50 [7] [µM] | CC50 [7] [µM] | GI50 [8] [µM] | CC50 [8] [µM] | TGI (NSCLC) [µM] | TGI [4] [µM] | further results
O=C1Nc2ccc(F)cc2/C1=C\c1c(Cl)[nH]c2c1ccc1ccccc12 | 51.3 | 0.4 | 70.8 | – | – | – | – | – | – | – | – | – | – | – | – | – | – | – | – | – | –
COc1cc2c(cc1C)NC(=O)/C2=C/c1c(Cl)[nH]c2c1ccc1ccccc12 | – | – | – | 47.9 | 0.31 | – | – | – | – | – | – | – | – | – | – | – | – | – | – | – | –
COc1cc2c(/C=C3/C(=O)Nc4cc(Cl)ccc43)c(Cl)[nH]c2cc1C | 41.7 | 0.15 | 39.8 | 52.5 | 0.12 | 0.14 | 58.9 | 0.43 | 0.17 | 25.7 | 0.23 | 35.5 | 0.28 | 49 | 0.23 | 46.8 | 0.22 | 41.7 | – | – | –
CN(C)c1ccc2[nH]c(Cl)c(/C=C3/C(=O)N(C)c4ccc(O)cc43)c2c1 | 85.1 | 3.8 | – | 85.1 | 6.03 | 16.6 | – | 6.61 | 4.9 | 61.7 | 4.57 | 66.1 | 8.32 | 95.5 | 4.37 | 87.1 | 12.9 | – | 46.8 | 20.9 | TGI [1]: 33.9 µM; TGI [5]: 26.3 µM; TGI [6]: 55 µM; TGI [7]: 31.6 µM; TGI [2]: 30.9 µM
COc1cc2c(/C=C3/C(=O)Nc4ccccc43)c[nH]c2cc1C | 53.7 | 0.12 | – | – | – | 0.09 | – | – | – | – | – | – | – | – | – | – | – | – | – | – | –
COc1cc2c(/C=C3/C(=O)Nc4ccc(Br)cc43)c(Cl)[nH]c2cc1C | 35.5 | 2.14 | 50.1 | 53.7 | 1.58 | 1.62 | 37.1 | 3.02 | 1.95 | 23.4 | 2.14 | 41.7 | 2 | 38.9 | 2.45 | 37.1 | 2.24 | 30.9 | – | – | –
O=C1Nc2ccc(Cl)cc2/C1=C\c1c(Cl)[nH]c2c1ccc1ccccc12 | – | – | – | – | – | – | – | – | – | – | – | – | – | – | – | – | 0.38 | – | – | – | –
CC[C@]1(O)C[C@H]2CN(CCc3c([nH]c4ccccc34)[C@@](C(=O)OC)(c3cc4c(cc3OC)N(C=O)[C@H]3[C@@](O)(C(=O)OC)[C@H](OC(C)=O)[C@]5(CC)C=CCN6CC[C@]43[C@@H]65)C2)C1 [VINCRISTINE SULFATE] | 200 | 0.32 | 316 | – | 0.13 | 0.1 | 631 | 0.25 | 0.1 | 79.4 | 0.16 | 251 | 0.32 | 316 | 0.32 | 251 | 0.13 | 316 | – | – | –
COc1cc2c(cc1C)NC(=O)/C2=C/c1c[nH]c2ccccc12 | 95.5 | 11.8 | 91.2 | 89.1 | 10 | 8.71 | – | 13.5 | 8.13 | 95.5 | 13.2 | 81.3 | 12.6 | 97.7 | 11.5 | 85.1 | 13.8 | 91.2 | 43.6 | 52.5 | TGI [3]: 55 µM; TGI [1]: 33.9 µM; TGI [5]: 37.1 µM; TGI [6]: 45.7 µM; TGI [7]: 38 µM; TGI [8]: 36.3 µM; TGI [2]: 40.7 µM
COc1ccc2[nH]cc(/C=C3/C(=O)Nc4ccccc43)c2c1 | 75.9 | 3.47 | 91.2 | – | 6.17 | 2.34 | 43.6 | 5.13 | 2.24 | 70.8 | 6.61 | 75.9 | 6.31 | 81.3 | 5.75 | 83.2 | 5.62 | 83.2 | 25.1 | 15.5 | TGI [3]: 7.76 µM; TGI [1]: 28.8 µM; TGI [5]: 27.5 µM; TGI [6]: 30.2 µM; TGI [7]: 26.3 µM; TGI [8]: 24 µM; TGI [2]: 18.2 µM
